Results on 1 molecule are retold here after patent US6992188B1, “Substituted heterocyclic derivatives” (Pfizer, Inc., priority 1995, dated 2006).

What is called melting point is the temperature of the solid-liquid transition.

On to `CCC(CC)n1c(=O)[nH]c2c(Oc3c(C)cc(C)cc3C)nc(C)cc21` [Example 4, 1-(1-Ethylpropyl)-6-methyl-4-(2,4,6-trimethylphenoxy)-1,3-dihydro-imidazo[4,5-c]pyridin-2-one], for which the melting point lay within 235 to 237 °C.
